This is an account of results in patent US10160747B2, “Compounds and methods for kinase modulation, and indications therefor” (Plexxikon Inc., priority 2016, dated 2018).

The test system of assay [1] is MOLM-14 D835Y (endogenous FLT3 ITD and transfected FLT3 D835Y). The experiment in a line: MOLM-14 D835Y cell proliferation assay (CellTiter-Glo). In kind it is cell-based. Conditions: Homo sapiens, MOLM-14, 72 h; 3 d growth, GMean. The text has this: (§1) The FLT3 inhibitors may be assessed using the MOLM-14, Acute Myeloid Leukemia cell line that endogenously expresses FLT3 ITD or derivatives of the human FLT3 AML cell line which acquired the D835Y (activation loop) of F691L (gatekeeper) mutation after selection in escalating doses of the FLT3 Inhibitor AC220. FLT3 inhibitors may also be assessed using cells that are engineered to express mutant FLT3. For engineered cells, murine Ba/F3 cells were transfected with full-length FLT3 ITD/D835Y mutations. The parental BA/F3 cells are dependent upon Interleukin-3 (IL-3) for survival, and introduction of the FLT3 constructs rendered these cells dependent upon FLT3 kinase activity when cultured in the absences of IL-3. Engineered BA/F3 cell growth assays can be performed in either the […] of IL-3, to assess the compound inhibition of FLT3 or to detect the presence of off-target activity, respectively. Inhibitors of FLT3 kinase activity reduce or eliminate the FLT3 oncogenic signaling, resulting in reduced cell proliferation. This inhibition is measured as a function of compound concentration to assess IC50 values.
(§2) Cell lines used in proliferation assays are as follows in Table 2:
(§3) Cells were seeded at 1×10^4 cells per well of a 96 well cell culture plate in 50 μl of cell culture medium. Compounds were dissolved in DMSO, typically at a concentration of 0.5 mM and were serially diluted 1:3 for a total of eight points and added to the cells to final concentrations of […], 0.0041, 0.0014 and 0.00046 μM in 100 μl cell culture medium (final concentration 0.2% DMSO). […] The cells were incubated at 37° C., 5% CO2 for three days. CellTiter-Glo Buffer (Promega Cell Viability Assay catalog #G7573) and substrate were equilibrated to room temperature, and enzyme/substrate Recombinant Firefly Luciferase/Beetle Luciferin was reconstituted. The cell plates were equilibrated to room temperature for 30 minutes, then lysed by addition of an equivalent volume of the Celltiter-Glo Reagent. The plate was mixed for 10 minutes on a plate shaker to lyse the cells. The plates were read on a Tecan M1000 using Luminescence protocol modified to read 0.1 s per well. The luminescence reading assesses the ATP content, which correlates directly with cell number such that the reading as a function of compound concentration was used to determine the IC50 value.
For orientation: Cellular ATP, detected with luciferase, serves as a proxy for viable cell number.

Assay [2] has as its system MOLM-14 F691L (endogenous FLT3 ITD and transfected FLT3 F691L). The experiment in a line: MOLM-14 F691L cell proliferation assay (CellTiter-Glo). In kind it is cell-based. The conditions noted are these: Homo sapiens, MOLM-14, 72 h; 3 d growth, GMean.
Text: as §1, §2, §3

The next assay concerns the target T1, BA/F3-FLT3-ITD + D835Y (Homo sapiens, UniProt P36888, D835Y, cells depend on it, form not given).
T1 sequence (P36888 with tags, fused parts or gaps INS600HVDFREYEYD/D835Y): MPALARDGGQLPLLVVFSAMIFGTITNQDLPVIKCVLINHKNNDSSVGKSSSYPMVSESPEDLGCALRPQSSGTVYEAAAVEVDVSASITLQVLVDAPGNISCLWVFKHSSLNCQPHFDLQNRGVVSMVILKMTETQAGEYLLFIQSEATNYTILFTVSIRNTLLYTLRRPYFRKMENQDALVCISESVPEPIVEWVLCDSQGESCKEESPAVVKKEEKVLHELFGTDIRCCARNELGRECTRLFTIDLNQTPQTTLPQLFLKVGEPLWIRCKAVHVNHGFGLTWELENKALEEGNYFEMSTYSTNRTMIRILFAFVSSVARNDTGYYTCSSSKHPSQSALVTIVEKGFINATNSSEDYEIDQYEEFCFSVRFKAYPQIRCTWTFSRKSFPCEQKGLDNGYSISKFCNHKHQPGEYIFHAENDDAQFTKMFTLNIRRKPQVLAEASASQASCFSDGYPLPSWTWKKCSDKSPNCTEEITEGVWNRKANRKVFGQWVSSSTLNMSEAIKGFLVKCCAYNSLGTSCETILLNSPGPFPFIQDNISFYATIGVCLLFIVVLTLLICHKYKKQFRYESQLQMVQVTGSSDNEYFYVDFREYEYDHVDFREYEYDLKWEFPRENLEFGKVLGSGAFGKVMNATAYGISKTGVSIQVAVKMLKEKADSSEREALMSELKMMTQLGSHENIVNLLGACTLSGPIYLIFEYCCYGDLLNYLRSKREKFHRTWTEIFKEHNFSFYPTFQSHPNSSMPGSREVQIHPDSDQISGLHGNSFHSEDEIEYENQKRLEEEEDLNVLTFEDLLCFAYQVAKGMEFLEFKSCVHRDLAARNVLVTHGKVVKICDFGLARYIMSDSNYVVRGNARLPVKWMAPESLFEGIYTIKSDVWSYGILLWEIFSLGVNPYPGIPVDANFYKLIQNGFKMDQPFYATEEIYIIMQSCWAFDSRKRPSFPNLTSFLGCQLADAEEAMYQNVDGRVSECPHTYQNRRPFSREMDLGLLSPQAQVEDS
As to the kind of experiment: Engineered BA/F3 cell growth assay, FLT3 ITD/D835Y. The assay is classed as cell-based, murine. Conditions: 3 d growth.
Text: as §1, §2, §3
The BaF3 assays as developed used to generate the data in Tables 7 and 8 are identical and differ only in minor details in regards to vector design, not biological function. Both introduce the FLT3 gene with MV4-11 based ITD duplications and resistance mutations from an exogenous promoter (MSCV and CMV respectively) in the exact same cell line.
As a result of the expressed FLT3 protein, the IL3 factor dependent BaF3 cell clones become IL3-factor independent.
The compounds in Tables 7 and 8 were tested in an identical fashion by incubating such clones in with increasing concentrations. Inhibition of the FLT3 activity by an inhibitor results in factor dependency, which in the absence of IL3 results in cell death in the three day growth assays.

In the case of `COc1ncc(NC(=O)Cc2ccc(-c3cnc4[nH]c(-c5ccnc(C#N)c5)cc4c3)nc2)cc1C(F)(F)F` [Compound P-0006, 2-[6-[2-(2-cyano-4-pyridyl)-1H-pyrrolo[2,3-b]pyridin-5-yl]-3-pyridyl]-N-[6-methoxy-5-(trifluoromethyl)-3-pyridyl]acetamide], the IC50 in assay [1] and in assay [2] was 0.0001 to 10 µM in each case. On BA/F3-FLT3-ITD + D835Y, the GI50 (as a rule, the concentration that inhibits growth by half) fell in the range of 0.0001 to 10 µM.
On to `COc1ccc(-c2cc3cc(-c4ccc(CC(=O)Nc5cnc(OC)c(C(F)(F)F)c5)c(F)c4)cnc3[nH]2)cn1` [Compound P-0007, 2-[2-fluoro-4-[2-(6-methoxy-3-pyridyl)-1H-pyrrolo[2,3-b]pyridin-5-yl]phenyl]-N-[6-methoxy-5-(trifluoromethyl)-3-pyridyl]acetamide], for which the IC50 in assay [1] and in assay [2] was 0.0001 to 10 µM in each case. For the same molecule, at BA/F3-FLT3-ITD + D835Y, the GI50 was in the range of 0.0001 to 10 µM.
As for `COc1ncc(NC(=O)Cc2ccc(-c3cnc4[nH]c(C#CC5CC5)cc4c3)cc2)cc1C(F)(F)F` [Compound P-0008, 2-[4-[2-(2-cyclopropylethynyl)-1H-pyrrolo[2,3-b]pyridin-5-yl]phenyl]-N-[6-methoxy-5-(trifluoromethyl)-3-pyridyl]acetamide], the half-inhibitory concentration (IC50) in assay [1] and in assay [2] was 0.0001 to 10 µM each time. For the same molecule, at BA/F3-FLT3-ITD + D835Y, the GI50 lay in the range of 0.0001 to 10 µM.
Turning to `COc1cc(-c2cc3cc(-c4ccc(CC(=O)Nc5cnc(OC)c(C(F)(F)F)c5)c(F)c4)cnc3[nH]2)ccn1` [Compound P-0009, 2-[2-fluoro-4-[2-(2-methoxy-4-pyridyl)-1H-pyrrolo[2,3-b]pyridin-5-yl]phenyl]-N-[6-methoxy-5-(trifluoromethyl)-3-pyridyl]acetamide], the IC50 in assay [1] and in assay [2] was 0.0001 to 10 µM each time. The GI50 on BA/F3-FLT3-ITD + D835Y was 0.0001 to 10 µM.
In the case of `COc1ncc(NC(=O)Cc2ccc(-c3cnc4[nH]c(-c5ccc(N6CCOCC6)nc5)cc4c3)cc2F)cc1C(F)(F)F` [Compound P-0010, 2-[2-fluoro-4-[2-(6-morpholino-3-pyridyl)-1H-pyrrolo[2,3-b]pyridin-5-yl]phenyl]-N-[6-methoxy-5-(trifluoromethyl)-3-pyridyl]acetamide], the IC50 in assay [1] and in assay [2] was 0.0001 to 10 µM in each case. The GI50 on BA/F3-FLT3-ITD + D835Y was in the range of 0.0001 to 10 µM.
On to `COc1ccc(-c2cc3cc(-c4ccc(CC(=O)Nc5cnc(OC)c(C(F)(F)F)c5)cc4F)cnc3[nH]2)cn1` [Compound P-0012, 2-[3-fluoro-4-[2-(6-methoxy-3-pyridyl)-1H-pyrrolo[2,3-b]pyridin-5-yl]phenyl]-N-[6-methoxy-5-(trifluoromethyl)-3-pyridyl]acetamide], for which the IC50 in assay [1] and in assay [2] was 0.0001 to 10 µM each time. In addition, at BA/F3-FLT3-ITD + D835Y, the GI50 was 0.0001 to 10 µM.
Take `COc1ncc(NC(=O)Cc2ccc(-c3cnc(Nc4cnn(C(F)F)c4C)nc3)cc2)cc1C(F)(F)F` [Compound P-0039, 2-[4-[2-[[1-(difluoromethyl)-5-methyl-pyrazol-4-yl]amino]pyrimidin-5-yl]phenyl]-N-[6-methoxy-5-(trifluoromethyl)-3-pyridyl]acetamide]: the IC50 in assay [1] and in assay [2] was 0.0001 to 10 µM in each case. Also, the GI50 on BA/F3-FLT3-ITD + D835Y lay within 0.0001 to 10 µM.
Take `O=C(Cc1ccc(-c2cnc3[nH]c(Cl)cc3c2)cc1F)Nc1cc(C(F)(F)F)ccn1` [Compound P-0040, 2-(4-(2-chloro-1H-pyrrolo[2,3-b]pyridin-5-yl)-2-fluorophenyl)-N-(4-(trifluoromethyl)pyridin-2-yl)acetamide]: the IC50 in assay [1] and in assay [2] was 0.0001 to 10 µM throughout. Also, the GI50 on BA/F3-FLT3-ITD + D835Y is 0.0001 to 10 µM.
Regarding `O=C(Cc1ccc(-c2cnc3[nH]c(Cl)cc3c2)cc1F)Nc1ccc(C(F)(F)F)cn1` [Compound P-0041, 2-[4-(2-chloro-1H-pyrrolo[2,3-b]pyridin-5-yl)-2-fluoro-phenyl]-N-[5-(trifluoromethyl)-2-pyridyl]acetamide], at BA/F3-FLT3-ITD + D835Y, the GI50 lay in the range of 0.0001 to 10 µM.
On to `CC(C)(C#N)c1ccc(NC(=O)Cc2ccc(-c3cnc4[nH]cc(F)c4c3)cc2F)cn1` [Compound P-0042, N-(6-(2-cyanopropan-2-yl)pyridin-3-yl)-2-(2-fluoro-4-(3-fluoro-1H-pyrrolo[2,3-b]pyridin-5-yl)phenyl)acetamide], for which the IC50 in assay [1] and in assay [2] was 0.0001 to 10 µM each time. The 50% growth inhibitory concentration (GI50) on BA/F3-FLT3-ITD + D835Y lay in the range of 0.0001 to 10 µM.
For the molecule `O=C(Cc1ccc(-c2cnc3[nH]c(-c4ccnc(N5CCOCC5)c4)cc3c2)nc1)Nc1ccnc(C(F)(F)F)c1` [Compound P-0069, 2-[6-[2-(2-morpholino-4-pyridyl)-1H-pyrrolo[2,3-b]pyridin-5-yl]-3-pyridyl]-N-[2-(trifluoromethyl)-4-pyridyl]acetamide], the IC50 (commonly the concentration at which inhibition is half-maximal) in assay [1] was 0.0001 to 10 µM. Moreover, at BA/F3-FLT3-ITD + D835Y, the GI50 was 0.0001 to 10 µM.
For the molecule `Cn1cc(Nc2ncc(-c3ccc(CC(=O)NCc4ccc(Cl)cn4)cc3)cn2)cn1` [Compound P-0114, N-[(5-chloro-2-pyridyl)methyl]-2-[4-[2-[(1-methylpyrazol-4-yl)amino]pyrimidin-5-yl]phenyl]acetamide], in assay [2], the IC50 lay within 0.0001 to 10 µM. In addition, on BA/F3-FLT3-ITD + D835Y, the concentration for 50% growth inhibition (GI50) lay in the range of 0.0001 to 10 µM.
Molecule `N#Cc1ccc(-c2cc3cc(-c4ccc(CC(=O)Nc5ccnc(C(F)(F)F)c5)nc4)cnc3[nH]2)cn1` [Compound P-0184, 2-[5-[2-(6-cyano-3-pyridyl)-1H-pyrrolo[2,3-b]pyridin-5-yl]-2-pyridyl]-N-[2-(trifluoromethyl)-4-pyridyl]acetamide] came in with an IC50 in assay [2] of 0.0001 to 10 µM. For the same molecule, the GI50 on BA/F3-FLT3-ITD + D835Y lay in the range of 0.0001 to 10 µM.
As to `N#Cc1cc(-c2cc3cc(-c4ccc(CC(=O)Nc5ccnc(C(F)(F)F)c5)cn4)cnc3[nH]2)ccn1` [Compound P-0185, 2-[6-[2-(2-cyano-4-pyridyl)-1H-pyrrolo[2,3-b]pyridin-5-yl]-3-pyridyl]-N-[2-(trifluoromethyl)-4-pyridyl]acetamide], the 50% growth inhibitory concentration (GI50) on BA/F3-FLT3-ITD + D835Y was 0.0001 to 10 µM.
Take `COc1cc(-c2cc3cc(-c4ccc(CC(=O)Nc5ccnc(C(F)(F)F)c5)cn4)cnc3[nH]2)ccn1` [Compound P-0186, 2-[6-[2-(2-methoxy-4-pyridyl)-1H-pyrrolo[2,3-b]pyridin-5-yl]-3-pyridyl]-N-[2-(trifluoromethyl)-4-pyridyl]acetamide]: in assay [1], the IC50 was 0.0001 to 10 µM. Also, the GI50 at BA/F3-FLT3-ITD + D835Y fell in the range of 0.0001 to 10 µM.
`N#Cc1cc(-c2cc3cc(-c4cc(F)c(CC(=O)Nc5cc(C(F)(F)F)ccn5)cc4F)cnc3[nH]2)ccn1` [Compound P-0188, 2-[4-[2-(2-cyano-4-pyridyl)-1H-pyrrolo[2,3-b]pyridin-5-yl]-2,5-difluoro-phenyl]-N-[4-(trifluoromethyl)-2-pyridyl]acetamide] had an IC50 in assay [1] of 0.0001 to 10 µM. In addition, on BA/F3-FLT3-ITD + D835Y, the GI50 lay in the range of 0.0001 to 10 µM.
